Data reported in patent US20080076137A1, “Bioanalytic Systems and Methods” (priority 2006, published 2008).

Test system: mouse monoclonal antibodies (mAb) B8 against Btri
Assay: ELISA: binding of anti-Btri mAb to Streptavidin-coated plates modified with biotinylated Btri glycoconjugates
Settings: for fluorescence intensity I (binding capacity / maximal activity): corrected fluorescence 355nm/460nm, at loading of maximal binding
Procedure: Biot1-PNPA was used to prepare a polyacrylamide conjugate with blood group trisaccharide B (Btri), Galα1-3(Fucα1-2)Gal-(FIG. 1b, Glyc=Btri). The obtained end-labeled glycopolymer; biott-PHEAA-(Btri)x (molar fraction of Btri is 20%), was tested on ability to bind monoclonal antibodies (mAbs) against Btri in ELISA. Its antibody binding activity was compared to that of other biotinylated derivatives of Btri, two monomeric glycosides with Btri-biot linkers of different length and a glycopolymer, PHEAA-(Btri)x-bioty. The latter was synthesized by the routine approach (see FIG. 1a) and contained biotin residues randomly pendant to the polymer backbone as side groups.
Dependence of signal in ELISA from loading of Streptaviditn-coated plates with biotynylated glycoconjugates is shown in FIG. 8. As shown, binding of antibodies with Streptavidin-coated plates modified with biotinilated glycoconjugates. The Streptavidin-coated plates were consequentially incubated with the glycoconjugates and mouse mAb; for development of the bound mAbs an anti-mouse alkaline phosphatase conjugate in combination with a fluorescent substrate were used. The detected fluorescence intensity is plotted against added per well amounts of a) Btri and b) biotin related to the quantity of Streptavidin in well. According the manufacturer 125 pmole Streptavidin is contained per well, the working well surface was calculated to be 9·10^15 Å^2. […] The antibody binding to surface modified with the biotinylated monovalent Btri-glycosides was noticeably lower then in the cases with the multivalent ligands. For the glycoside with a long linker, Btri-O(CH2)3NHCO(CH2)5NH-biot, assay signal was detected only when coating concentration of the glycoside exceeded 20 ng/well (0.18 mole biotin/mole Streptavidin, and 22 pmole of Btri/well).
All chemicals and solvents apart from those mentioned below were purchased from Merck (Germany) and Fluka (Switzerland). The solvents were dried and purified by conventional procedures. Galα1-3(Fucα1-2)Galβ-O(CH2)3NH2, 4-Nitrophenylacrylate, PNPA and PHEAA-(Btri)x-biotiny were synthesized as described elsewhere. Mouse monoclonal antibodies (mAb) B8 against Btri were obtained from All-Russian Hematology Research Center, Moscow. Anti-mouse IgG+IgM (H+L)-alkaline phosphatase conjugate (Ig-AP) was the product of AP Biotech (UK). The organocobalt complexes used in this work were protected from light; their solutions were concentrated under vacuum with bath temperature kept below 35° C.
Enzyme-Linked Immunosorbent Assay.
Before test plates “Reacti-Bind Streptavidin Coated High Binding Capacity Black 96-Well Plate” (Pierce) were rinsed twice with PBS. Then serial tenfold dilutions of the biotinylated glycoconjugates contained Btri in PBS (0.02-200 μg ml^−1, […] per well) were added onto the plates for 1 h at 37° C. Plates were washed with PBS containing 0.1% Tween-20 (washing buffer). The same way plates were washed between all the next steps. After washing the plates were blocked with 3-% BSA in PBS. B8 mAbs (1:100 in PBS containing 0.3% BSA) were added and plates were incubated for 1 h at 37° C. After that plates were washed and incubated with Ig-AP (1:5000 in PBS containing 0.3% BSA) for 1 h at 37° C. […] After 30-min incubation at room temperature fluorescence intensity (355nm/460nm) was measured by “Victor^2” multilabel counter (PerkinElmer). The collected data were expressed in fluorescence units. Each assay was done in duplicate, blank reaction was performed by omitting mAb. The blank reading was subtracted from the final fluorescence to provide the corrected fluorescence intensity values.

Row | Substance | interaction with mAb (in words) (ELISA on Streptavidin-coated plates) | fluorescence intensity I (binding capacity / maximal activity) | coating concentration above which assay signal was detected (0.18 mole biotin/mole Streptavidin, 22 pmole of Btri/well) | loading at which maximal binding of mAb / maximal activity was achieved (Streptavidin-coated plate, 125 pmole Streptavidin per well, 200 ng/well = 186 pmol of Btri, 220 ng/well = 220 pmole of Btri/well) | surface density of Btri at which binding with mAb reached maximal level (working well surface calculated to be 9·10^15 Å^2)
1 | Btri-O(CH2)3NH-biot | exceptionally weak | ~5×10^4 f.u. | – | – | –
2 | Btri-O(CH2)3NHCO(CH2)5NH-biot | – | ~70×10^4 f.u. | exceeded 20 ng/well | 220 ng/well | about 15 residues/1000 Å^2
